Measured values published in US9598448B2, “Osmium (II) arene imino anti-cancer complexes” (University of Warwick, priority 2010, dated 2017).
“Also recorded” adds a separate entry of the source. Read-outs that look alike come from different tables or passages of the source.

Legend:
[1] = system: HCT-116 colon adenocarcinoma s.c. xenograft model; assay: In vivo efficacy in HCT-116 s.c. xenograft model; conditions: 8.0 mg kg^−1
[2] = system: human ovarian A2780 cancer cells; assay: SRB growth inhibition assay, A2780; format: cell-based
Description: The concentrations of the osmium complexes that inhibit 50% of the proliferation of human ovarian A2780 cancer cells were determined by sulforhodamine B test. A2780 cells were seeded in 96-well plate (Falcon) at 5000 cells/well, after the incubation for 48 h, The complexes were solubilised in DMSO (Sigma) to provide 10 mM stocks. The stocks were serially diluted by cell culture media to give concentrations four-fold than the final concentrations for the assay. The dilutions of complexes in cell culture media were added to the 96-well plate with cells in triplicates to achieve the final concentrations. The final DMSO concentration in each well was no more than 1% (v/v). The complexes were removed after 24 h. The cells were washed with Phosphate Buffered Saline once and cell culture media was added 150 μL/well. The cells were recovered for 72 h. The surviving cells were fixed by adding 150 μL/well of 50% (w/v) trichloroacetic acid and incubated for 1 h at 277 K (277 K). The plates were washed with tap water three times and dried under a flow of warm air, 0.4% sulforhodamine B (Sigma) solution 100 μL/well followed by washing with 1% acetic acid five times and dried under a flow of warm air. The dye was dissolved in 10 mM Tris buffer […] The absorbance of each well was obtained by the Multiskan Ascent plate reader (Labsystems) at 540 nm. The absorbance value of SRB in each well is directly proportional to the cell number. Then the absorbance can be plotted against concentration and the IC50 determined by using Origin software.
The cytotoxicity studies were carried out as described previously above.

[3] = system: RT-112 bladder; assay: MTT growth inhibition assay, RT-112; format: cell-based, human; conditions: for IC50: MTT, 96 h
Description: (§1) Tumor cell growth inhibition was assessed using the MTT assay.^13 2×10^3 cells were inoculated into a 96-well plate and incubated overnight at 37° C. in a humidified atmosphere containing 5% CO2. Complexes were solubilised in DMSO as above, and then diluted in complete cell culture medium to give a broad range of concentrations. Cisplatin was included in the screen as a comparator. Medium was removed from each well and replaced with complex or control solutions, and the plates then incubated for a further 96 hours. After 96 h culture medium was removed and 200 μL of 0.5 mg mL^−1 MTT solution (Sigma) in complete medium added to each well. Following further 4 h incubation, the solution was removed from each well and 150 μL of DMSO (Sigma) added to solubilise the formazan crystals resulting from MTT conversion. Absorbance values for the resulting solutions were read at 550 nm on a microplate reader and cell survival calculated as the absorbance of treated cells divided by the control. Results were expressed in terms of IC50 values (i.e. concentration of compound required to kill 50% of cells) and all experiments were performed in triplicate.
(§2) The following human cancer cell lines were cultured in RPMI 1640 cell culture medium supplemented with 1 mM sodium pyruvate, 2 mM L-glutamine and 10% fetal bovine serum (all from Sigma): A549 non-small cell lung, HCT-116 colon, MCF-7 breast, PC-3 prostate (all from LGC Promochem, Teddington, UK), A2780/cis ovarian (cisplatin-resistant) and RT-112 bladder (both from ECACC, Salisbury, UK).

[4] = system: HCT-116 colon; assay: MTT growth inhibition assay, HCT-116; format: cell-based, human; conditions: 96 h
Description: as §1, §2

[5] = system: human tumor 60-cell line panel; conditions: Data from NCI/DTP screening: October 2009, 48 h incubation; cited from earlier work
[6] = system: PC-3 prostate; assay: MTT growth inhibition assay, PC-3; format: cell-based, human; conditions: 96 h
Description: as §1, §2

[7] = system: A2780/cis ovarian (cisplatin-resistant); assay: MTT growth inhibition assay, A2780/cis; format: cell-based, human; conditions: 96 h
Description: as §1, §2

[8] = system: MCF-7 breast; assay: MTT growth inhibition assay, MCF-7; format: cell-based, human; conditions: 96 h
Description: as §1, §2

[9] = system: A549 non-small cell lung; assay: MTT growth inhibition assay, A549; format: cell-based, human; conditions: 96 h
Description: as §1, §2

[10] = system: human A549 lung cancer cells; conditions: cited from earlier work; for activity towards human A549 lung cancer cells: up to concentrations of 100 μM
[11] = cited from earlier work
[12] = system: Balb/c immunodeficient nude mice bearing HCT-116 tumours; assay: Evaluation of in vivo toxicity in nude mouse HCT-116 xenograft model; conditions: i.v. day 0, doses from 2 up to 40 mg kg^−1, monitored 15 days
Description: Female Balb/c immunodeficient nude mice (Harlan, Loughborough, UK) aged 6-12 weeks were used. Mice received Harlan 2018 diet (Harlan) and water ad libitum. Mice were kept in cages in an air-conditioned room with regular alternating cycles of light and darkness. All animal procedures were carried out under a project license issued by the UK Home Office and UKCCCR guidelines (Workman P, Twentyman P, Balkwill F et al: United Kingdom Co-ordinating Committee on Cancer Research (UKCCCR) Guidelines for the Welfare of Animals in Experimental Neoplasia (Second Edition). Br J Cancer 77: 1-10, 1998) were followed throughout.
HCT-116 was used in the study. Tumours were excised from a donor animal, placed in sterile physiological saline containing antibiotics and cut into small fragments of approximately 2 mm^3. Under brief general inhalation anaesthesia, fragments were implanted in the […] abdominal flank of each mouse using a trocar. Once the tumours could accurately be measured using callipers (mean tumour volume of approximately 50 mm^3), treatment commenced. Complexes 3 and 6 were solubilised in 10% DMSO; 5% Tween-80; 85% saline and were administered intravenously to groups of 2 mice on day 0. Animals were weighed frequently and monitored for any deleterious effects over a period of 15 days.

[13] = pKa of hydroxyl group; format: physicochemical
[14] = Stability and hydrolysis (1H NMR, MS, UV-vis); format: physicochemical; conditions: 310 K, 24 h, 95% deuterated phosphate buffer (10 mM)/5% MeOD-d4
[15] = system: A2780 cells; assay: N-acetyl-L-cysteine (NAC) treatment, cell viability by SRB; format: cell-based, human; conditions: pretreated with 5 mM NAC for 2 h; 1.2-1.8× IC50 (2.5× for cisplatin)
Description: Then NAC and osmium complexes were removed at the same time and washed with PBS once, the cells were incubate for 72 h for recovery. The cell viability was tested by SRB test same as used for IC50 test.

[16] = system: tubulin; assay: Tubulin polymerization assay; format: biochemical; conditions: 37° C., 60 min; for Inhibition of Tubulin Polimerziation: Osmium Compounds at 10 μM
Description: To follow the anticancer mechanism indicated by COMPARE, We have investigated whether osmium complexes can interacted directly with tubulin.
A Cytoskeleton tubulin polymerization assay kit (catalog no BK004) was used in the tubulin polymerization study. Briefly, 10 μL of general tubulin buffer (80 mM PIPES, pH 6.9, 2 mM MgCl2, and 0.5 mM EGTA) containing osmium compound, colchicine or taxol was pipetted into the prewarmed 96 well microplate. Tubulin (defrosted to room temperature from −80° C. and then placed on ice before use) was diluted with tubulin polymerization buffer with 1 mM GTP to a final concentration of 4 mg mL^−1. Diluted tubulin (100 μL) was added into the wells containing osmium compound, colchicine or taxol. Diluted tubulin (100 μL) mixed with general tubulin buffer (10 μL) served as control. The absorbance at 340 nm was read immediately with a Tecan microplate reader.

[17] = SRB, 24 h exposure, 72 h recovery, read-out: IC50 values for azopyridine complexes against A2780 ovarian cancer cells
[18] = SRB, 24 h exposure, 72 h recovery, read-out: IC50 values for iminopyridine complexes against A2780 ovarian cancer cells
[19] = A2780 human ovarian cancer cells, read-out: IC50 values against A2780
[20] = SRB, 24 h exposure, 72 h recovery, read-out: IC50 to A2780 cell line

## N.N.[Cl][Pt][Cl] [Cisplatin, reference compound]
[1]
  Maximum % weight loss: 8%
  Median tumour doubling time: 6.4 days
  day of maximum % weight loss: 6 days
[2]; [17]
  IC50: 2000 nM
[2]; [18]
  IC50: 2000 nM
[3]
  IC50: 1400 nM
[4]
  IC50: 2600 nM
[5]
  GI50: 10300 nM
  TGI: 50700 nM
[6]
  IC50: 21500 nM
[7]
  IC50: 4000 nM
[8]
  IC50: 3000 nM
[9]
  IC50: 4100 nM

## F[P-](F)(F)(F)(F)F.[I-].[Os+2].c1ccc(-c2ccccc2)cc1.c1ccc(N=Nc2ccccn2)cc1 [Complex 1, [(η^6-bip)Os(Azpy)I]PF6]
[2]; [17]
  IC50: 5400 nM

## Cc1ccc(C(C)C)cc1.F[P-](F)(F)(F)(F)F.[I-].[Os+2].c1ccc(N=Nc2ccccn2)cc1 [Complex 2, [(η^6-p-cym)Os(Azpy)I]PF6]
[2]; [17]
  IC50: 10200 nM

## Cc1ccc(C(C)C)cc1.F[P-](F)(F)(F)(F)F.Oc1ccc(N=Nc2ccccn2)cc1.[I-].[Os+2] [Complex 4, [(η^6-p-cym)Os(Azpy-OH)I]PF6]
[2]; [17]
  IC50: 300 nM

## CN(C)c1ccc(N=Nc2ccccn2)cc1.F[P-](F)(F)(F)(F)F.[I-].[Os+2].c1ccc(-c2ccccc2)cc1 [Complex 5, [(η^6-bip)Os(azpy-NMe2)I]PF6]
[2]; [19]
  IC50: 140 nM

## CN(C)c1ccc(N=Nc2ccccn2)cc1.F[P-](F)(F)(F)(F)F.[Cl-].[Os+2].c1ccc(-c2ccccc2)cc1 [Complex 11, [(η^6-bip)Os(azpy-NMe2)Cl]PF6]
[2]; [17]
  IC50: 3900 nM
[10]
  cytotoxicity against the A549 cancer cell line: did not show significant cytotoxicity
  activity towards human A549 lung cancer cells: No activity
[11]; listed as 11
  solubility (in water / under test conditions), earlier report: low solubility
[11]; listed as [(η^6-bip)Os(Azpy-NMe2)Cl]PF6
  solubility (in water / under test conditions), earlier report: poor solubility in water

## [(η^6-bip)Os(Azpy)Cl]PF6 [Complex 7]
[2]; [17]
  IC50: 13900 nM

## [(η^6-bip)Os(Azpy-O)I].0.5H2O [3*]
[12]
  toxicity / deleterious effects: no evident toxicity; also recorded: negligible deleterious effects
[2]; [19]
  IC50: 140 nM
[3]
  IC50: 400 nM
[3]; RT-112
  difference in potency to cisplatin, RT-112: 3 fold
[4]
  IC50: < 300 nM
[13]
  pKa of the hydroxyl group: less than 7
[6]
  IC50: < 300 nM
[7]
  IC50: < 300 nM
[8]
  IC50: 250 nM
[9]
  IC50: 400 nM

## [(η^6-bip)Os(azpy-OH)Cl]PF6 [Complex 9]
[2]; [17]
  IC50: 800 nM

## [(η^6-bip)Os(pp)I]PF6 [Complex 14]
[2]; [18]
  IC50: 18600 nM

## [(η^6-p-cym)Os(Azpy)Cl]PF6 [Complex 8]
[2]; [19]
  IC50: > 50000 nM
[2]; [17]
  IC50: > 50000 nM
[14]
  stability and hydrolysis in aqueous solution: disappearance of the peaks corresponding to the azopyridine ligand

## [(η^6-p-cym)Os(Azpy-NMe2)Cl]PF6 [Complex 12]
[2]; [17]
  IC50: 1800 nM
[15]
  cell growth restored after NAC pretreatment: only a small effect on restoring growth
[3]
  IC50: 2200 nM
[4]
  IC50: 900 nM
[10]
  cytotoxicity against the A549 cancer cell line: did not show significant cytotoxicity
  activity towards human A549 lung cancer cells: No activity
[14]
  stability and hydrolysis in aqueous solution: remained stable and did not hydrolyze
[6]
  IC50: 6800 nM
[7]
  IC50: 1800 nM
[8]
  IC50: 1100 nM
[9]
  IC50: 5200 nM

## [(η^6-p-cym)Os(Azpy-OH)Cl]PF6 [Complex 10]
[2]; [17]
  IC50: 1300 nM

## [(η^6-p-cym)Os(pp)Cl]PF6 [Complex 15]
[2]; [18]
  IC50: 26200 nM

## [(η^6-p-cym)Os(pp-NMe2)Cl]PF6 [Complex 16]
[2]; [18]
  IC50: 3500 nM

## [(η^6-p-cym)Os(pp-NMe2)I]PF6 [Complex 13]
[2]; [18]
  IC50: 400 nM

## [Os(η^6-bip)(1-CF3-4-Cl-Azpy)I]PF6 [FY107]
[16]
  Inhibition of Tubulin Polimerziation: 13.0%
[2]; [20]
  IC50: 5700 nM

## [Os(η^6-bip)(1-Cl-azpy)I]PF6 [FY110]
[16]
  Inhibition of Tubulin Polimerziation: 11.4%
[2]; [20]
  IC50: 3700 nM

## [Os(η^6-bip)(2-Br-Azpy)I]PF6 [FY061]
[2]; [20]
  IC50: 590 nM

## [Os(η^6-bip)(2-Cl-Azpy)I]PF6 [FY078]
[2]; [20]
  IC50: 1000 nM

## [Os(η^6-bip)(2-F-Azpy)I]PF6 [FY069]
[16]
  Inhibition of Tubulin Polimerziation: 21.0%
[16]; purified tubulin
  IC50: ~20000 nM
  effect on amount of tubulin polymerized: reduced the amount of tubulin polymerized in a dose-dependent manner
[2]; [20]
  IC50: 630 nM

## [Os(η^6-bip)(2-I-Azpy)I]PF6 [FY070]
[2]; [20]
  IC50: 220 nM

## [Os(η^6-bip)(3-Cl-Azpy)I]PF6 [FY052]
[2]; [20]
  IC50: 22000 nM

## [Os(η^6-bip)(pp)Cl]PF6 [FY098]
[2]; [20]
  IC50: 4600 nM

## [Os(η^6-bip)(pp-NMe2)Cl]PF6 [FY093]
[2]; [20]
  IC50: 440 nM

## [Os(η^6-bip)(pp-NMe2)I]PF6 [FY012]
[2]; [20]
  IC50: 140 nM

## [Os(η^6-bip)(pp-OH)Cl]PF6 [FY150]
[2]; [20]
  IC50: 2400 nM

## [Os(η^6-p-cym)(1-Cl-Azpy)I]PF6 [FY112]
[2]; [20]
  IC50: 9000 nM

## [Os(η^6-p-cym)(2-I-Azpy)I]PF6 [FY067]
[2]; [20]
  IC50: 2400 nM

## [Os(η^6-p-cym)(OH-Azpy-NO2)Cl]PF6 [FY033]
[2]; [20]
  IC50: 300 nM

## [Os(η^6-p-cym)(OH-Azpy-NO2)I]PF6 [FY036]
[2]; [20]
  IC50: 290 nM

## [Os(η^6-p-cym)(abpy))I]PF6 [FY043]
[2]; [20]
  IC50: 10800 nM

## [Os(η^6-p-cym)(pp-OH)Cl]PF6 [FY119]
[2]; [20]
  IC50: 5500 nM
